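Following 48 hours of exposure in 96-well plates, responses at five concentrations were used to interpolate endpoints linearly. Abbreviation: GI50, concentration required for 50% inhibition of growth. At the TGI there is no net growth.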
What was measured:
Experiment in all cases: DTP human tumour cell line panel, 48 h
MOLT-4 leukemia = system: MOLT-4 leukemia
UACC-62 melanoma = system: UACC-62 melanoma
SK-MEL-28 melanoma = system: SK-MEL-28 melanoma
T-47D breast = system: T-47D breast
KM12 colon = system: KM12 colon
HOP-62 NSCLC = system: HOP-62 NSCLC
MDA-MB-435 = system: MDA-MB-435
HCT-116 colon = system: HCT-116 colon
NCI-H522 lung = system: NCI-H522 lung
SR leukemia = system: SR leukemia
TK-10 renal = system: TK-10 renal
HCT-15 colon = system: HCT-15 colon
PC-3 prostate = system: PC-3 prostate
OVCAR-5 ovarian = system: OVCAR-5 ovarian
OVCAR-3 ovarian = system: OVCAR-3 ovarian
NCI/ADR-RES ovarian = system: NCI/ADR-RES ovarian
LOX IMVI melanoma = system: LOX IMVI melanoma
HL-60(TB) leukemia = system: HL-60(TB) leukemia
COLO 205 colon = system: COLO 205 colon
786-0 renal = system: 786-0 renal
OVCAR-8 ovarian = system: OVCAR-8 ovarian
SK-MEL-2 melanoma = system: SK-MEL-2 melanoma
NCI-H460 lung = system: NCI-H460 lung
SF-539 CNS = system: SF-539 CNS
SN12C renal = system: SN12C renal
CCRF-CEM leukemia = system: CCRF-CEM leukemia
EKVX NSCLC = system: EKVX NSCLC
BT-549 breast = system: BT-549 breast
A549 NSCLC = system: A549 NSCLC
NCI-H226 lung = system: NCI-H226 lung
U251 CNS = system: U251 CNS
NCI-H23 lung = system: NCI-H23 lung
IGROV1 ovarian = system: IGROV1 ovarian
SF-268 CNS = system: SF-268 CNS
M14 melanoma = system: M14 melanoma
MDA-MB-231 breast = system: MDA-MB-231 breast
OVCAR-4 ovarian = system: OVCAR-4 ovarian
SW-620 colon = system: SW-620 colon
MCF7 breast = system: MCF7 breast
SF-295 CNS = system: SF-295 CNS
UO-31 renal = system: UO-31 renal
SK-MEL-5 melanoma = system: SK-MEL-5 melanoma
HT29 colon = system: HT29 colon
SK-OV-3 ovarian = system: SK-OV-3 ovarian
HOP-92 NSCLC = system: HOP-92 NSCLC
HCC-2998 colon = system: HCC-2998 colon
A498 renal = system: A498 renal
HS 578T breast = system: HS 578T breast
MALME-3M melanoma = system: MALME-3M melanoma
RPMI-8226 leukemia = system: RPMI-8226 leukemia
DU-145 prostate = system: DU-145 prostate
SNB-75 CNS = system: SNB-75 CNS
ACHN renal = system: ACHN renal
K-562 leukemia = system: K-562 leukemia
SNB-19 CNS = system: SNB-19 CNS

## COc1ccc2cc(C(=O)N3CCC([C@@H](C)C(=O)NCc4ccc5c(c4)OCO5)CC3)[nH]c2c1
MOLT-4 leukemia
  GI50: > 100 µM
  TGI: > 100 µM
UACC-62 melanoma
  GI50: 28.1 µM
  TGI: > 100 µM
SK-MEL-28 melanoma
  GI50: > 100 µM
  TGI: > 100 µM
T-47D breast
  GI50: > 100 µM
  TGI: > 100 µM
KM12 colon
  GI50: > 100 µM
  TGI: > 100 µM
HOP-62 NSCLC
  GI50: 45.9 µM
  TGI: > 100 µM
MDA-MB-435
  GI50: 51.2 µM
  TGI: > 100 µM
HCT-116 colon
  GI50: > 100 µM
  TGI: > 100 µM
NCI-H522 lung
  GI50: > 100 µM
  TGI: > 100 µM
SR leukemia
  GI50: > 100 µM
  TGI: > 100 µM
TK-10 renal
  GI50: > 100 µM
  TGI: > 100 µM
HCT-15 colon
  GI50: > 100 µM
  TGI: > 100 µM
PC-3 prostate
  GI50: > 100 µM
  TGI: > 100 µM
OVCAR-5 ovarian
  GI50: > 100 µM
  TGI: > 100 µM
OVCAR-3 ovarian
  GI50: > 100 µM
  TGI: > 100 µM
NCI/ADR-RES ovarian
  GI50: > 100 µM
  TGI: > 100 µM
LOX IMVI melanoma
  GI50: 50.1 µM
  TGI: > 100 µM
HL-60(TB) leukemia
  GI50: > 100 µM
  TGI: > 100 µM
COLO 205 colon
  GI50: > 100 µM
  TGI: > 100 µM
786-0 renal
  GI50: 36.7 µM
  TGI: > 100 µM
OVCAR-8 ovarian
  GI50: 48.4 µM
  TGI: > 100 µM
SK-MEL-2 melanoma
  GI50: > 100 µM
  TGI: > 100 µM
NCI-H460 lung
  GI50: > 100 µM
  TGI: > 100 µM
SF-539 CNS
  GI50: > 100 µM
  TGI: > 100 µM
SN12C renal
  GI50: > 100 µM
  TGI: > 100 µM
CCRF-CEM leukemia
  GI50: > 100 µM
  TGI: > 100 µM
EKVX NSCLC
  GI50: > 100 µM
  TGI: > 100 µM
BT-549 breast
  GI50: 43.7 µM
  TGI: > 100 µM
A549 NSCLC
  GI50: > 100 µM
  TGI: > 100 µM
NCI-H226 lung
  GI50: > 100 µM
  TGI: > 100 µM
U251 CNS
  GI50: > 100 µM
  TGI: > 100 µM
NCI-H23 lung
  GI50: > 100 µM
  TGI: > 100 µM
IGROV1 ovarian
  GI50: > 100 µM
  TGI: > 100 µM
SF-268 CNS
  GI50: 77.3 µM
  TGI: > 100 µM
M14 melanoma
  GI50: > 100 µM
  TGI: > 100 µM
MDA-MB-231 breast
  GI50: > 100 µM
  TGI: > 100 µM
OVCAR-4 ovarian
  GI50: > 100 µM
  TGI: > 100 µM
SW-620 colon
  GI50: > 100 µM
  TGI: > 100 µM
MCF7 breast
  GI50: > 100 µM
  TGI: > 100 µM
SF-295 CNS
  GI50: 68.5 µM
  TGI: > 100 µM
UO-31 renal
  GI50: > 100 µM
  TGI: > 100 µM
SK-MEL-5 melanoma
  GI50: > 100 µM
  TGI: > 100 µM
HT29 colon
  GI50: > 100 µM
  TGI: > 100 µM
SK-OV-3 ovarian
  GI50: > 100 µM
  TGI: > 100 µM
HOP-92 NSCLC
  GI50: 23.4 µM
  TGI: > 100 µM
HCC-2998 colon
  GI50: > 100 µM
  TGI: > 100 µM
A498 renal
  GI50: > 100 µM
  TGI: > 100 µM
HS 578T breast
  GI50: 27.9 µM
  TGI: > 100 µM
MALME-3M melanoma
  GI50: > 100 µM
  TGI: > 100 µM
RPMI-8226 leukemia
  GI50: > 100 µM
  TGI: > 100 µM
DU-145 prostate
  GI50: > 100 µM
  TGI: > 100 µM
SNB-75 CNS
  GI50: 17.8 µM
  TGI: 78.3 µM
ACHN renal
  GI50: 48.1 µM
  TGI: > 100 µM
K-562 leukemia
  GI50: 79.4 µM
  TGI: > 100 µM
SNB-19 CNS
  GI50: 56.7 µM
  TGI: > 100 µM

Reference: PubChem BioAssay (NCI)
